Results: article PMC10107299, “Neutralizing the Impact of the Virulence Factor LecA from Pseudomonas aeruginosa on Human Cells with New Glycomimetic Inhibitors” (Angewandte Chemie (International Ed. in English), 2023)
Read-outs that look alike come from different tables or passages of the source.

Columns and labels:
LecA [1] = biological target: T1, LecA (Pseudomonas aeruginosa, UniProt Q05097); test: Direct binding to immobilized LecA by surface plasmon resonance (SPR); settings: for Relative potency r.p. (SPR): compared to respective monovalent compound in each series; for kon: SPR single-cycle kinetics, 25 °C, N=3 (I1 N=1)
T1 construct: made in house
Method: K d values were oscillating with the number of methylene units present in the linker, presumably linked to the zig‐zag geometry of the hydrocarbon chain.
Expression and purification of LecA as well as competitive binding by fluorescence polarization was performed as described by Joachim et al..[9] […]
Surface plasmon resonance experiments were performed on a BIACORE X100 instrument (GE Healthcare) at 25 °C as described by Zahorska et. al..[8] Averages and standard deviations were calculated from three independent experiments. […]
Figure S3: SPR of divalent LecA ligands from benzene series. Sensorgrams obtained from SPR single-cycle kinetics experiments. Five different concentrations of each compound (0, 10, 50, 100, 200 nM) were sequentially injected to obtain the experimental sensorgrams (blue lines), which were then fitted by a 1:1 model (orange) on BIACORE evaluation software. […]
Figure S4: SPR of divalent LecA ligands from pyridine and sulfonated series. Sensorgrams obtained from SPR single-cycle kinetics experiments. Five different concentrations of each compound (0, 10, 50, 100, 200 nM) were sequentially injected to obtain the experimental sensorgrams (blue lines), which were then fitted by a 1:1 model (orange) on BIACORE evaluation software.
(also on this page, place not known: Response (RU)0 Response (RU)0 Response (RU) Response (RU) Response (RU) Response (RU) 030060090012001500) […]

LecA [2] = biological target: T1, LecA; test: Competitive binding assay based on fluorescence polarization
Method: All synthesized galactosides were then evaluated for LecA inhibition using a competitive binding assay based on fluorescence polarization (Figure S1).[24]
Expression and purification of LecA as well as competitive binding by fluorescence polarization was performed as described by Joachim et al..[9] The assay was performed in TBS/Ca2+ buffer (20 mM Tris, 137 mM NaCl, 2.6 mM KCl at pH 7.4 supplemented with 1 mM CaCl2) in presence of 25% DMSO. Averages and standard deviations were calculated from at least three independent experiments. […]
RR OR In h i b i to r [µ M ]
R R In h i b i to r [µ M ] […]
R In h i b i to r [µ M ] 30 L2
30 F2 40 K2 In h i b i to r [µ M ] […]
In h i b i to r [µ M ] In h i b i to r [µ M ]
Figure S1: Evaluation of amide divalent LecA ligands in a competitive binding assay based on fluorescence […]
representative experiment is shown or each series. Averages and standard deviations from at least three independent titrations of triplicates each.
[…] Fluorescence polarization [mP] -1 0 1 2 3 0 1001010 Me-α-Gal pNO2-Ph-β-Gal 1000 Inhibitor [µM] Fluorescence polarization [mP])

T1 sequence (Q05097 whole entry): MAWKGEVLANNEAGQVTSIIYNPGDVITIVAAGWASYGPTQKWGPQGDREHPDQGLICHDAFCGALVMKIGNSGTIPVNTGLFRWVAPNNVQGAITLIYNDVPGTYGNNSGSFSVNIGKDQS

SMILES	Kd (LecA [1]) [µM]	Relative potency r.p. (SPR) (LecA [1])	IC50 (LecA [2]) [µM]	koff (LecA [1]) [s⁻¹]	kon (LecA [1])	IC50 (LecA [2]; TBS/Ca2+ buffer, 25% DMSO, divalent ligands at lower assay limit, read-out: IC50 (LecA competitive binding, fluorescence polarization)) [µM]
COc1ccc(NC(=O)/C=C/c2ccc(O[C@@H]3O[C@H](CO)[C@H](O)[C@H](O)[C@H]3O)cc2)cc1 [Compound A1]	5.21 ± 0.6	1	18.8 ± 6.6			
COc1ccc(NC(=O)CCc2ccc(O[C@@H]3O[C@H](CO)[C@H](O)[C@H](O)[C@H]3O)cc2)cc1 [Compound A2]	5.38 ± 0.09	1	18.9 ± 5.5			
O=C(/C=C/c1ccc(O[C@@H]2O[C@H](CO)[C@H](O)[C@H](O)[C@H]2O)cc1)Nc1ccc(Oc2ccc(NC(=O)/C=C/c3ccc(O[C@@H]4O[C@H](CO)[C@H](O)[C@H](O)[C@H]4O)cc3)cc2)cc1 [Compound B1]	0.0673 ± 0.0094	77	6.6 ± 1.5	0.00596 ± 0.00206	89 ± 29 x10^3/Ms	
O=C(CCc1ccc(O[C@@H]2O[C@H](CO)[C@H](O)[C@H](O)[C@H]2O)cc1)Nc1ccc(Oc2ccc(NC(=O)CCc3ccc(O[C@@H]4O[C@H](CO)[C@H](O)[C@H](O)[C@H]4O)cc3)cc2)cc1 [Compound B2]	0.0221 ± 0.0003	244	3.6 ± 1.3	0.00349 ± 8e-05	158 ± 5.7 x10^3/Ms	
O=C(/C=C/c1ccc(O[C@@H]2O[C@H](CO)[C@H](O)[C@H](O)[C@H]2O)cc1)Nc1ccc(OCOc2ccc(NC(=O)/C=C/c3ccc(O[C@@H]4O[C@H](CO)[C@H](O)[C@H](O)[C@H]4O)cc3)cc2)cc1 [Compound C1]	0.0377 ± 0.011	138	4.7 ± 2.6	0.00379 ± 0.00089	110 ± 52 x10^3/Ms	
O=C(CCc1ccc(O[C@@H]2O[C@H](CO)[C@H](O)[C@H](O)[C@H]2O)cc1)Nc1ccc(OCOc2ccc(NC(=O)CCc3ccc(O[C@@H]4O[C@H](CO)[C@H](O)[C@H](O)[C@H]4O)cc3)cc2)cc1 [Compound C2]	0.0153 ± 0.0006	352	4.2 ± 1.7	0.00462 ± 0.0002	303 ± 20 x10^3/Ms	
O=C(/C=C/c1ccc(O[C@@H]2O[C@H](CO)[C@H](O)[C@H](O)[C@H]2O)cc1)Nc1ccc(OCCCOc2ccc(NC(=O)/C=C/c3ccc(O[C@@H]4O[C@H](CO)[C@H](O)[C@H](O)[C@H]4O)cc3)cc2)cc1 [Compound E1]	0.156 ± 0.038	33	4.5 ± 1.6	0.00251 ± 0.00022	16.9 ± 5.2 x10^3/Ms	
O=C(CCc1ccc(O[C@@H]2O[C@H](CO)[C@H](O)[C@H](O)[C@H]2O)cc1)Nc1ccc(OCCCOc2ccc(NC(=O)CCc3ccc(O[C@@H]4O[C@H](CO)[C@H](O)[C@H](O)[C@H]4O)cc3)cc2)cc1 [Compound E2]	0.0185 ± 0.0015	291	3.5 ± 1	0.00345 ± 0.00013	187 ± 13 x10^3/Ms	
O=C(/C=C/c1ccc(O[C@@H]2O[C@H](CO)[C@H](O)[C@H](O)[C@H]2O)cc1)Nc1ccc(OCCCCOc2ccc(NC(=O)/C=C/c3ccc(O[C@@H]4O[C@H](CO)[C@H](O)[C@H](O)[C@H]4O)cc3)cc2)cc1 [Compound F1]	2.25 ± 0.3	2	7.9 ± 4.8	0.00388 ± 0.00043	1.75 ± 0.3 x10^3/Ms	
O=C(CCc1ccc(O[C@@H]2O[C@H](CO)[C@H](O)[C@H](O)[C@H]2O)cc1)Nc1ccc(OCCCCOc2ccc(NC(=O)CCc3ccc(O[C@@H]4O[C@H](CO)[C@H](O)[C@H](O)[C@H]4O)cc3)cc2)cc1 [Compound F2]	0.0231 ± 0.011	233	4.4 ± 1.5	0.00366 ± 0.00042	175 ± 55 x10^3/Ms	
O=C(/C=C/c1ccc(O[C@@H]2O[C@H](CO)[C@H](O)[C@H](O)[C@H]2O)cc1)Nc1ccc(OCCCOc2ccc(NC(=O)/C=C/c3ccc(O[C@@H]4O[C@H](CO)[C@H](O)[C@H](O)[C@H]4O)cc3)cn2)nc1 [Compound I1]	0.0402	74	6.6 ± 4	0.00227	68200 M⁻¹ s⁻¹	
O=[N+]([O-])c1ccc(O[C@@H]2O[C@H](CO)[C@H](O)[C@H](O)[C@H]2O)cc1 [pNO2-Ph-β-Gal, reference compound]						39.8 ± 12
